Data from ChEMBL document CHEMBL3124869 (J Med Chem, 2014).

Tests used:
[1] = physchem; conditions: octanol/water, pH 7.4
[2] = in vitro; conditions: dog, MDCK
Description: Intrinsic absorptive permeability from apical to basolateral side of dog RRCK cells

[3] = in vitro; conditions: human, liver microsomes
Description: Apparent total intrinsic clearance in human liver microsomes

[4] = target: Activated CDC42 kinase 1 (Homo sapiens, UniProt Q07912)
[5] = Half life in rat at 1 mg/kg, iv; format: ADME, organism-based; parameters: dose 1 mg/kg, route intravenous; conditions: in vivo
[6] = tested on: Mus musculus; test: Toxicity in po dosed athymic nu/nu mouse xenografted with human NCI-H3122 cells harboring ALK L1196M mutant assessed as body weight reduction administered via gavage starting on day 15 post tumor implantation; format: organism-based; conditions: in vivo
[7] = Cmax in rat at 5 mg/kg, po; format: ADME, organism-based; parameters: dose 5 mg/kg, route oral; conditions: in vivo
[8] = Antitumor activity against human NCI-H3122 cells harboring ALK L1196M mutant xenografted in athymic nu/nu mouse assessed as tumor total growth inhibition at 15 mg/kg, po bid administered via gavage starting on day 15 post tumor implantation; format: functional; conditions: NCI-H3122, 360 h, read-out: TGI
[9] = target: Tyrosine-protein kinase Fes/Fps (Homo sapiens, UniProt P07332); test: Inhibition of FES (unknown origin) using Km levels of ATP
[10] = AUC in rat at 1 mg/kg, iv; format: ADME, organism-based; parameters: dose 1 mg/kg, route intravenous; conditions: plasma
[11] = Plasma clearance in rat at 1 mg/kg, iv; format: ADME, organism-based; parameters: dose 1 mg/kg, route intravenous
[12] = target: High affinity nerve growth factor receptor (Homo sapiens, UniProt P04629); test: Inhibition of NTRK1 (unknown origin) using Km levels of ATP
[13] = target: Leukocyte tyrosine kinase receptor (Homo sapiens, UniProt P29376); test: Inhibition of LTK (unknown origin) using Km levels of ATP
[14] = target: BDNF/NT-3 growth factors receptor (Homo sapiens, UniProt Q16620); test: Inhibition of NTRK2 (unknown origin) using Km levels of ATP
[15] = Oral bioavailability in rat at 5 mg/kg; format: ADME, organism-based; conditions: in vivo
[16] = target: Proto-oncogene tyrosine-protein kinase ROS (Homo sapiens, UniProt P08922); test: Inhibition of ROS1 (unknown origin) by Pfizer mobility shift assay
[17] = Antitumor activity against human NCI-H3122 cells harboring ALK L1196M mutant xenografted in athymic nu/nu mouse assessed as tumor total growth inhibition at 30 mg/kg, po qd administered via gavage starting on day 15 post tumor implantation; format: functional; conditions: NCI-H3122, 360 h, read-out: TGI
[18] = target: NT-3 growth factor receptor (Homo sapiens, UniProt Q16288); test: Inhibition of NTRK3 (unknown origin) using Km levels of ATP
[19] = target: Focal adhesion kinase 1 (Homo sapiens, UniProt Q05397); test: Inhibition of PTK2 (unknown origin) using Km levels of ATP
[20] = Tmax in rat at 5 mg/kg, po; format: ADME, organism-based; parameters: dose 5 mg/kg, route oral; conditions: in vivo
[21] = Antitumor activity against human NCI-H3122 cells harboring ALK L1196M mutant xenografted in athymic nu/nu mouse assessed as tumor growth regression at 50 mg/kg, po bid administered via gavage starting on day 15 post tumor implantation measured on day 27; format: functional
[22] = AUC in rat at 5 mg/kg, po; format: ADME, organism-based; parameters: dose 5 mg/kg, route oral; conditions: plasma
[23] = target: Tyrosine-protein kinase Fer (Homo sapiens, UniProt P16591); test: Inhibition of FER (unknown origin) using Km levels of ATP
[24] = Volume of distribution at steady state in rat at 1 mg/kg, iv; format: ADME, organism-based; parameters: dose 1 mg/kg, route intravenous; conditions: in vivo, read-out: Vdss
[25] = target: T1, ALK tyrosine kinase receptor (Homo sapiens, UniProt Q9UM73, L1196M)
[26] = target: T1, ALK tyrosine kinase receptor; remark: listed apart in the source

Work on `Cc1nc([C@@](C)(O)CO)sc1-c1cnc(N)c(O[C@H](C)c2cc(F)ccc2-n2nccn2)c1` yielded a logD [1] of 2.9, a Papp A→B [2] of 17 ×10⁻⁶ cm/s and a CLint scaled [3] of 15 mL/min/kg.

Work on `C[C@@H](Oc1cc(-c2cn(C)nc2C#N)cnc1N)c1cc(F)ccc1-n1nccn1` yielded a logD [1] of 3.3, a Papp A→B [2] of 18 ×10⁻⁶ cm/s and a CLint scaled [3] of 22 mL/min/kg.

For `C[C@@H](Oc1cc(-c2ccnn2C)cnc1N)c1cc(F)ccc1-n1nccn1`, the logD [1] was 3.3, the Papp A→B [2] was 22 ×10⁻⁶ cm/s and the CLint scaled [3] was 17 mL/min/kg.

With `C[C@@H](Oc1cc(-c2cnnn2C)cnc1N)c1cc(F)ccc1-n1nccn1` the logD [1] was 2.4, the Papp A→B [2] was 24 ×10⁻⁶ cm/s and the CLint scaled [3] was 3 mL/min/kg.

`COc1ncccc1-c1cnc(N)c(O[C@H](C)c2cc(F)ccc2-n2nccn2)c1` showed a logD [1] of 3.7, a Papp A→B [2] of 14 ×10⁻⁶ cm/s and a CLint scaled [3] of 38 mL/min/kg.

Work on `COc1ncncc1-c1cnc(N)c(O[C@H](C)c2cc(F)ccc2-n2nccn2)c1` yielded a logD [1] of 3.1, a Papp A→B [2] of 22 ×10⁻⁶ cm/s and a CLint scaled [3] of 49 mL/min/kg.

`Cc1nc(C(C)(C)O)ccc1-c1cnc(N)c(O[C@H](C)c2cc(F)ccc2-n2nccn2)c1` showed a logD [1] of 3.6, a Papp A→B [2] of 14 ×10⁻⁶ cm/s and a CLint scaled [3] of 49 mL/min/kg.

In the case of `Cc1nc(C(C)(C)O)sc1-c1cnc(N)c(O[C@H](C)c2cc(F)ccc2-n2nccn2)c1`, the logD [1] is reported as 3.6, the Papp A→B [2] is reported as 18 ×10⁻⁶ cm/s and the CLint scaled [3] is reported as 23 mL/min/kg.

`Cc1nccn1-c1cnc(N)c(O[C@H](C)c2cc(F)ccc2-n2nccn2)c1` showed a logD [1] of 2.4, a Papp A→B [2] of 21 ×10⁻⁶ cm/s and a CLint scaled [3] of 80 mL/min/kg.

Work on `Cc1nc(C2(O)CN(C)C2)sc1-c1cnc(N)c(O[C@H](C)c2cc(F)ccc2-n2nccn2)c1` yielded a logD [1] of 2.6, a Papp A→B [2] of 3.4 ×10⁻⁶ cm/s and a CLint scaled [3] of 55 mL/min/kg.

In the case of `Cc1nc(C2(O)CCS(=O)(=O)C2)sc1-c1cnc(N)c(O[C@H](C)c2cc(F)ccc2-n2nccn2)c1` (stereo not given in full), the logD [1] is reported as 3.2, the Papp A→B [2] is reported as 14 ×10⁻⁶ cm/s and the CLint scaled [3] is reported as 13 mL/min/kg.

With `Cc1nc([C@](C)(O)CO)sc1-c1cnc(N)c(O[C@H](C)c2cc(F)ccc2-n2nccn2)c1` the IC50 [4] was 15 nM, the half-life [5] was 0.9 h and the Activity [6] was “Non-toxic”. It also gave a Cmax [7] of 568 nM, an inhibition in vivo at 15 mg/kg [8] of 100% and an IC50 [9] of 5 nM. The AUC [10] was 0.667 µM·h, the logD [1] was 2.9 and the clearance [11] was 54 mL/min/kg. The IC50 [12] was 17 nM, the IC50 [13] was 2 nM and the Papp A→B [2] was 19 ×10⁻⁶ cm/s. It also gave an IC50 [14] of 4 nM, a bioavailability [15] of 86% and a CLint scaled [3] of 15 mL/min/kg. The Ki [16] was 0.02 nM, the inhibition in vivo at 30 mg/kg [17] was 100% and the IC50 [18] was 18 nM. The IC50 [19] was 16 nM, the Tmax [20] was 1.3 h and the Activity [21] was 56%. It also gave an AUC [22] of 2.87 µM·h, an IC50 [23] of 2 nM and a Vd [24] of 2 L/kg.

`C[C@@H](Oc1cc(-c2cnn(C3CCNCC3)c2)cnc1N)c1cc(F)ccc1Cl` gave a logD [1] of 1.7, an IC50 [25] of 387 nM and a Papp A→B [2] of 2.3 ×10⁻⁶ cm/s. The CLint scaled [3] was 27 mL/min/kg and the Ki [26] was 5 nM.

With `Cc1n[nH]cc1-c1cnc(N)c(O[C@H](C)c2cc(F)ccc2F)c1` the logD [1] was 3.4, the Papp A→B [2] was 18 ×10⁻⁶ cm/s and the CLint scaled [3] was 31 mL/min/kg.

In the case of `Cc1n[nH]cc1-c1cnc(N)c(O[C@@H](C)c2cc(F)ccc2C#N)c1`, the logD [1] is reported as 2.7, the Papp A→B [2] is reported as 20 ×10⁻⁶ cm/s and the CLint scaled [3] is reported as 37 mL/min/kg.

`COc1ccc(F)cc1[C@@H](C)Oc1cc(-c2c[nH]nc2C)cnc1N` gave a logD [1] of 3.5, a Papp A→B [2] of 14 ×10⁻⁶ cm/s and a CLint scaled [3] of 65 mL/min/kg.

`Cc1n[nH]cc1-c1cnc(N)c(O[C@H](C)c2cc(F)ccc2-n2nccn2)c1` gave a logD [1] of 3.3, a Papp A→B [2] of 21 ×10⁻⁶ cm/s and a CLint scaled [3] of 46 mL/min/kg.

Work on `Cc1nn(C)cc1-c1cnc(N)c(O[C@H](C)c2cc(F)ccc2-n2nccn2)c1` yielded a logD [1] of 3.4, a Papp A→B [2] of 27 ×10⁻⁶ cm/s and a CLint scaled [3] of 68 mL/min/kg.

In the case of `Cc1nc(C2(O)CCOC2)sc1-c1cnc(N)c(O[C@H](C)c2cc(F)ccc2-n2nccn2)c1` (single isomer, unassigned), the logD [1] is reported as 3.3, the Papp A→B [2] is reported as 21 ×10⁻⁶ cm/s and the CLint scaled [3] is reported as 138 mL/min/kg.
